According to patent publication US7329652B2, “Diaminotriazole compounds useful as protein kinase inhibitors” (Vertex Pharamaceuticals Incorporated, priority 2004, dated 2008):
Like-named read-outs stand apart in the source and are kept apart here.

Key:
[1] = target: T1, JAK3 (Homo sapiens, UniProt P52333); test: JAK3 inhibition assay (radiometric 33P filter assay); assay type: biochemical
T1 sequence (P52333 1-1124): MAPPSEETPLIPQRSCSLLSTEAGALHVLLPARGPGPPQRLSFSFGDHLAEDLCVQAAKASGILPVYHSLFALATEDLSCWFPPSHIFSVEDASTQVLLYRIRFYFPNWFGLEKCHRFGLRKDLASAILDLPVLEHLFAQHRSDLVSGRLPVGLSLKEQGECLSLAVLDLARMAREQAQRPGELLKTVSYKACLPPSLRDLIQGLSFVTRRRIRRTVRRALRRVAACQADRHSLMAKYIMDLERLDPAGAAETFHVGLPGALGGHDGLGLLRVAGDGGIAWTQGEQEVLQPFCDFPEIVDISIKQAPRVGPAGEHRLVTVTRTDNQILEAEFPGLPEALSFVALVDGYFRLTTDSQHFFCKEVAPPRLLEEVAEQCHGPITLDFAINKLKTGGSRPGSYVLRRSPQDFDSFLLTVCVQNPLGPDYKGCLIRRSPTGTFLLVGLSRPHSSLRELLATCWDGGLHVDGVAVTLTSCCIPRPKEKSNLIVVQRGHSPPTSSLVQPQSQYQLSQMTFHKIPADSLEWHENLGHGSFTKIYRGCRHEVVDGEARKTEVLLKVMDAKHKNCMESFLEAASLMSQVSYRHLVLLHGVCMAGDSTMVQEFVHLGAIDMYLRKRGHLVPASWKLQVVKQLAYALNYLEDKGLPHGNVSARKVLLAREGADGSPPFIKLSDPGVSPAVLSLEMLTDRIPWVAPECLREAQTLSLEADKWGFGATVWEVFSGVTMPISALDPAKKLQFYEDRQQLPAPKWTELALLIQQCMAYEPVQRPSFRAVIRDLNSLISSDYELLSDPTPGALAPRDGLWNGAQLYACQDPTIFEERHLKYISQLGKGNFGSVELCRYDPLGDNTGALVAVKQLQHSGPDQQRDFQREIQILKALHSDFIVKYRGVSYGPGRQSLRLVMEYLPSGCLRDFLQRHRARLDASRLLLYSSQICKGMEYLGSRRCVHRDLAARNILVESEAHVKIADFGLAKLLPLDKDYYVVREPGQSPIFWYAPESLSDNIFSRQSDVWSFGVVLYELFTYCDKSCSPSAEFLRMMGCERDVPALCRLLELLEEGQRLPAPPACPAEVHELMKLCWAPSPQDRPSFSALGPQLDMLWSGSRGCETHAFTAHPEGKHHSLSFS
Method: (§1) Compounds were screened for their ability to inhibit JAK using the assay shown below. Reactions were carried out in a kinase buffer containing 100 mM HEPES (pH 7.4), 1 mM DTT, 10 mM MgCl2, 25 mM NaCl, and 0.01% BSA.
(§2) Substrate concentrations in the assay were 5 μM ATP (200 uCi/μmole ATP) and 1 μM poly(Glu)4Tyr. Reactions were carried out at 25° C. and 1 nM JAK3.
(§3) To each well of a 96 well polycarbonate plate was added 1.5 μl of a candidate JAK3 inhibitor along with 50 μl of kinase buffer containing 2 μM poly(Glu)4Tyr and 10 μM ATP. This was then mixed and 50 μl of kinase buffer containing 2 nM JAK3 enzyme was added to start the reaction. After 20 minutes at room temperature (25° C.), the reaction was stopped with 50 μl of 20% trichloroacetic acid (TCA) that also contained 0.4 mM ATP. The entire contents of each well were then transferred to a 96 well glass fiber filter plate using a TomTek Cell Harvester. After washing, 60 μl of scintillation fluid was added and ^33P incorporation detected on a Perkin Elmer TopCount.

[2] = target: JAK-2 enzyme (Homo sapiens, UniProt O60674); test: JAK2 inhibition assay (radiometric 33P filter assay); assay type: biochemical
JAK-2 enzyme, sequence (O60674 whole entry, species assumed): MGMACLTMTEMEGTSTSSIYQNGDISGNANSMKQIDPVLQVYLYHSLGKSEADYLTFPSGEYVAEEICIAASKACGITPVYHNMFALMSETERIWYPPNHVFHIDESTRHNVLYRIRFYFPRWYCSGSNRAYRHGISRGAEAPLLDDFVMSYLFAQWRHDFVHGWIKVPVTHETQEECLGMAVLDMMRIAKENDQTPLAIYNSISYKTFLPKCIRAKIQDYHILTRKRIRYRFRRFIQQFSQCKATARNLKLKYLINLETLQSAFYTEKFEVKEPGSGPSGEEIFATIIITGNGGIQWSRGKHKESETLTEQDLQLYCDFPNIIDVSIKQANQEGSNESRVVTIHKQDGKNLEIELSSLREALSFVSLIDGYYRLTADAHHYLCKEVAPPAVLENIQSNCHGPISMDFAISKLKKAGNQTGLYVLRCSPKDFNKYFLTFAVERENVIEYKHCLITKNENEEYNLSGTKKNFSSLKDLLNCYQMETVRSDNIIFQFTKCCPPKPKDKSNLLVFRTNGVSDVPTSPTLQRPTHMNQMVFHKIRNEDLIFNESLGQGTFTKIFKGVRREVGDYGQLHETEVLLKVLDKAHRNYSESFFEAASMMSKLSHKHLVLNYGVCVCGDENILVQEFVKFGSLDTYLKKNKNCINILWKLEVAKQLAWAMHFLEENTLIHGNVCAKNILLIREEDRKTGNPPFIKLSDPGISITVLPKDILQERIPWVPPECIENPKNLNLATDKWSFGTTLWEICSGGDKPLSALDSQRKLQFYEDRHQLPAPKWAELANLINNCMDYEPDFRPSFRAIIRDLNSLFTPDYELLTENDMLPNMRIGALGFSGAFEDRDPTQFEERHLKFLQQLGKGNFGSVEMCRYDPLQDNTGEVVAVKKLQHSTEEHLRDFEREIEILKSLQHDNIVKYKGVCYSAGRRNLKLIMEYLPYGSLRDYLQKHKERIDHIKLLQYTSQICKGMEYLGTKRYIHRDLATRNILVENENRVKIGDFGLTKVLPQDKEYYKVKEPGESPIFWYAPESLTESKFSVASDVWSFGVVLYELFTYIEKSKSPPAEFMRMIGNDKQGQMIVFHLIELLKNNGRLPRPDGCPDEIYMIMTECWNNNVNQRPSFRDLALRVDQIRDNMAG
Method: as §1, §2, §3
The assays were as described above in Example 25 except that JAK-2 enzyme was used, the final poly(Glu)4Tyr concentration was 15 μM, and final ATP concentration was 12 μM.

[3] = 1 μM poly(Glu)4Tyr, 5 μM ATP, 1 nM JAK3, 25° C., read-out: JAK3 inhibition data (Ki)
[4] = 15 μM poly(Glu)4Tyr, 12 μM ATP, read-out: JAK2 inhibition data (Ki)

Structure (SMILES) | Ki [1, 3] [nM] | Ki [2, 4] [nM] | Ki [1] [nM] | Ki [2] [nM]
CC(=O)Nc1ccc(Nc2nc(N)n(-c3cc(N4C[C@@H](C)N(C(C)=O)[C@@H](C)C4)ncn3)n2)cc1 [Compound 112] | < 50 | < 50 | – | –
CCCC1CCC(C(=O)Nc2ccc(Nc3nc(N)n(-c4cc(N5CCCN(C(C)=O)CC5)ncn4)n3)cc2)CC1 (stereo not shown) [Compound 25] | 50 to 500 | 50 to 500 | – | –
CC(=O)N1CCCN(c2cc(-n3nc(Nc4ccc(NC(=O)NC(C)(C)C)cc4)nc3N)ncn2)CC1 [Compound 87] | < 50 | < 50 | – | –
CC(=O)N1CCCN(c2cc(-n3nc(Nc4ccc(NC(=O)NC(C)C)cc4)nc3N)ncn2)CC1 [Compound 86] | < 50 | < 50 | – | –
CC(=O)N1CCCN(c2cc(-n3nc(Nc4ccc(NC(=O)OCC(C)C)cc4)nc3N)ccn2)CC1 [Compound 175] | 50 to 500 | 50 to 500 | – | –
CC(=O)N1[C@H](C)CN(c2cc(-n3nc(Nc4ccc(N5CCN(C(=O)NC(C)C)CC5)cc4)nc3N)ncn2)C[C@@H]1C [Compound 62] | < 50 | < 50 | – | –
CC(=O)N1[C@H](C)CN(c2cc(-n3nc(Nc4ccc(N)cc4)nc3N)ccn2)C[C@@H]1C [Compound 99] | < 50 | < 50 | – | –
CCCOC(=O)N1CCN(c2ccc(Nc3nc(N)n(-c4ccnc(N5CCCN(S(=O)(=O)CCC)CC5)c4)n3)cc2)CC1 [Compound 164] | 50 to 500 | 50 to 500 | – | –
CCNC(=O)Nc1ccc(Nc2nc(N)n(-c3ccnc(N4C[C@@H](C)N(C(C)=O)[C@@H](C)C4)c3)n2)cc1 [Compound 105] | < 50 | < 50 | – | –
CC(=O)N1CCCN(c2cc(-n3nc(Nc4ccc(NC(=O)c5ccoc5)cc4)nc3N)ncn2)CC1 [Compound 29] | < 50 | < 50 | – | –
CC(=O)N1[C@H](C)CN(c2cc(-n3nc(Nc4ccc(N5CCN(C(=O)OCC(C)C)CC5)cc4)nc3N)ncn2)C[C@@H]1C [Compound 58] | < 50 | < 50 | – | –
CC(=O)N1CCCN(c2cc(-n3nc(Nc4ccc(N(C)C(=O)Oc5ccccc5)cc4)nc3N)ncn2)CC1 [Compound 134] | – | – | < 50 | < 50
CCS(=O)(=O)N1CCN(c2ccc(Nc3nc(N)n(-c4ccnc(N5CCCN(C(=O)OC(C)C)CC5)c4)n3)cc2)CC1 [Compound 155] | 50 to 500 | 50 to 500 | – | –
CCCCOC(=O)Nc1ccc(Nc2nc(N)n(-c3ccnc(N4CCCN(C(C)=O)CC4)c3)n2)cc1 [Compound 174] | 50 to 500 | 50 to 500 | – | –
CC(=O)N1[C@H](C)CN(c2cc(-n3nc(Nc4ccc(NC(=O)NC(C)(C)C)cc4)nc3N)ccn2)C[C@@H]1C [Compound 108] | < 50 | < 50 | – | –
CC(=O)N1CCCN(c2cc(-n3nc(Nc4ccc(N(C)C(=O)OCC(C)C)cc4)nc3N)ncn2)CC1 [Compound 131] | < 50 | < 50 | – | –
CC(=O)N1[C@H](C)CN(c2cc(-n3nc(Nc4ccc(NC(=O)Oc5ccc(C)cc5)cc4)nc3N)ncn2)C[C@@H]1C [Compound 81] | < 50 | < 50 | – | –
CCCOC(=O)N1CCN(c2ccc(Nc3nc(N)n(-c4ccnc(N5CCCN(C(=O)OC)CC5)c4)n3)cc2)CC1 [Compound 158] | 50 to 500 | 50 to 500 | – | –
CCCOC(=O)N1CCN(c2ccc(Nc3nc(N)n(-c4ccnc(N5CCCN(S(=O)(=O)C(C)C)CC5)c4)n3)cc2)CC1 [Compound 165] | 50 to 500 | 50 to 500 | – | –
CC(=O)N1[C@H](C)CN(c2cc(-n3nc(Nc4ccc(NC(=O)CCC(C)C)cc4)nc3N)ccn2)C[C@@H]1C [Compound 110] | < 50 | < 50 | – | –
CCCNC(=O)Nc1ccc(Nc2nc(N)n(-c3ccnc(N4C[C@@H](C)N(C(C)=O)[C@@H](C)C4)c3)n2)cc1 [Compound 106] | < 50 | < 50 | – | –
CC(C)OC(=O)N1CCN(c2ccc(Nc3nc(N)n(-c4ccnc(N5CCCN(S(C)(=O)=O)CC5)c4)n3)cc2)CC1 [Compound 168] | 50 to 500 | 50 to 500 | – | –
CC(=O)N1CCCN(c2cc(-n3nc(Nc4ccc(N(C)C(=O)Oc5ccc(C)cc5)cc4)nc3N)ncn2)CC1 [Compound 133] | – | – | < 50 | < 50
CC(=O)N1[C@H](C)CN(c2cc(-n3nc(Nc4ccc(NC(=O)Nc5c(F)cccc5F)cc4)nc3N)ncn2)C[C@@H]1C [Compound 73] | < 50 | < 50 | – | –
CC(=O)N1CCCN(c2cc(-n3nc(Nc4ccc(NC(=O)O[C@H]5C[C@H](C)CC[C@H]5C(C)C)cc4)nc3N)ncn2)CC1 [Compound 97] | 50 to 500 | 50 to 500 | – | –
CC(=O)N1[C@H](C)CN(c2cc(-n3nc(Nc4ccc(NC(=O)O[C@@H]5C[C@@H](C)CC[C@@H]5C(C)C)cc4)nc3N)ncn2)C[C@@H]1C [Compound 83] | – | < 50 | – | –

Further lines, with some results ahead:

Ki [1, 3] [nM] | Ki [2, 4] [nM] | Structure (SMILES) | Ki [1] [nM] | Ki [2] [nM]
< 50 | < 50 | COC1CCC(C(=O)Nc2ccc(Nc3nc(N)n(-c4cc(N5CCCN(C(C)=O)CC5)ncn4)n3)cc2)CC1 (stereo not shown) [Compound 31] | – | –
< 50 | < 50 | CCOC(=O)N1CCN(c2ccc(Nc3nc(N)n(-c4cc(NC)ncn4)n3)cc2)CC1 [Compound 167] | – | –
50 to 500 | 50 to 500 | CCCS(=O)(=O)N1CCCN(c2cc(-n3nc(Nc4ccc(N5CCN(C(=O)OCC)CC5)cc4)nc3N)ncn2)CC1 [Compound 146] | – | –
< 50 | < 50 | Nc1nc(Nc2ccc(N3CCOCC3)cc2)nn1-c1cc(N2CCN3C(=O)CC[C@H]3C2)ncn1 [Compound 22] | – | –
< 50 | < 50 | CC(=O)CC(=O)N1CCCN(c2cc(-n3nc(Nc4ccc(N5CCOCC5)cc4)nc3N)ncn2)CC1 [Compound 6] | – | –
< 50 | < 50 | CC(C)(C)OC(=O)N1CCN(c2ccc(Nc3nc(N)n(-c4cc(N5CCCN(C(=O)CC#N)CC5)ncn4)n3)cc2)CC1 [Compound 122] | – | –
< 50 | < 50 | CC(=O)N1CCCN(c2cc(-n3nc(Nc4ccc(NC(=O)OC(C)C)cc4)nc3N)ncn2)CC1 [Compound 93] | – | –
< 50 | < 50 | CC(C)(C)OC(=O)Nc1ccc(Nc2nc(N)n(-c3cc(N4CCCN(C(=O)CC#N)CC4)ncn3)n2)cc1 [Compound 136] | – | –
< 50 | < 50 | Nc1nc(Nc2ccc(N3CCOCC3)cc2)nn1-c1cc(N2CCCN(C(=O)CC(F)(F)F)CC2)ncn1 [Compound 9] | – | –
< 50 | < 50 | CC(=O)N1CCCN(c2cc(-n3nc(Nc4ccc(N5CCN(C(=O)C6CCC6)CC5)cc4)nc3N)ncn2)CC1 [Compound 40] | – | –
< 50 | < 50 | CCCOC(=O)N(C)c1ccc(Nc2nc(N)n(-c3cc(N4CCCN(C(C)=O)CC4)ncn3)n2)cc1 [Compound 129] | – | –
< 50 | < 50 | CC(=O)N1CCCN(c2cc(-n3nc(Nc4ccc(N)cc4)nc3N)ncn2)CC1 [Compound 20] | – | –
< 50 | < 50 | CC(=O)N1CCCN(c2cc(-n3nc(Nc4ccc(N5CCN(C(=O)OCC(C)(C)C)CC5)cc4)nc3N)ncn2)CC1 [Compound 49] | – | –
< 50 | < 50 | COC(=O)N1CCN(c2ccc(Nc3nc(N)n(-c4cc(N5C[C@@H](C)N(C(C)=O)[C@@H](C)C5)ncn4)n3)cc2)CC1 [Compound 53] | – | –
< 50 | < 50 | COCC(=O)N1CCCN(c2cc(-n3nc(Nc4ccc(N5CCOCC5)cc4)nc3N)ncn2)CC1 [Compound 5] | – | –
< 50 | < 50 | CCCNC(=O)Nc1ccc(Nc2nc(N)n(-c3cc(N4CCCN(C(C)=O)CC4)ncn3)n2)cc1 [Compound 85] | – | –
< 50 | < 50 | CC(=O)N1CCCN(c2cc(-n3nc(Nc4ccc(N(C)C)cc4)nc3N)ncn2)CC1 [Compound 10] | – | –
